Source: ChEMBL document CHEMBL2074548, “Transport of digoxin by human P-glycoprotein expressed in a porcine kidney epithelial cell line (LLC-PK1)” (J Pharmacol Exp Ther, 1992)

Experiments:
[1] = target: T1, ATP-dependent translocase ABCB1 (Homo sapiens, UniProt P08183); test: TP_TRANSPORTER: transepithelial transport (basal to apical) in MDR1-expressing LLC-PK1 cells; format: functional, cell-based; conditions: pig
[2] = target: T1, ATP-dependent translocase ABCB1; test: TP_TRANSPORTER: inhibition of Digoxin transepithelial transport (basal to apical)(Digoxin: 0.1uM, Vinblastine: 20 uM) in MDR1-expressing LLC-PK1 cells; format: functional, cell-based; conditions: pig, llc-pk1, 20 µM

T1 sequence (P08183 whole entry): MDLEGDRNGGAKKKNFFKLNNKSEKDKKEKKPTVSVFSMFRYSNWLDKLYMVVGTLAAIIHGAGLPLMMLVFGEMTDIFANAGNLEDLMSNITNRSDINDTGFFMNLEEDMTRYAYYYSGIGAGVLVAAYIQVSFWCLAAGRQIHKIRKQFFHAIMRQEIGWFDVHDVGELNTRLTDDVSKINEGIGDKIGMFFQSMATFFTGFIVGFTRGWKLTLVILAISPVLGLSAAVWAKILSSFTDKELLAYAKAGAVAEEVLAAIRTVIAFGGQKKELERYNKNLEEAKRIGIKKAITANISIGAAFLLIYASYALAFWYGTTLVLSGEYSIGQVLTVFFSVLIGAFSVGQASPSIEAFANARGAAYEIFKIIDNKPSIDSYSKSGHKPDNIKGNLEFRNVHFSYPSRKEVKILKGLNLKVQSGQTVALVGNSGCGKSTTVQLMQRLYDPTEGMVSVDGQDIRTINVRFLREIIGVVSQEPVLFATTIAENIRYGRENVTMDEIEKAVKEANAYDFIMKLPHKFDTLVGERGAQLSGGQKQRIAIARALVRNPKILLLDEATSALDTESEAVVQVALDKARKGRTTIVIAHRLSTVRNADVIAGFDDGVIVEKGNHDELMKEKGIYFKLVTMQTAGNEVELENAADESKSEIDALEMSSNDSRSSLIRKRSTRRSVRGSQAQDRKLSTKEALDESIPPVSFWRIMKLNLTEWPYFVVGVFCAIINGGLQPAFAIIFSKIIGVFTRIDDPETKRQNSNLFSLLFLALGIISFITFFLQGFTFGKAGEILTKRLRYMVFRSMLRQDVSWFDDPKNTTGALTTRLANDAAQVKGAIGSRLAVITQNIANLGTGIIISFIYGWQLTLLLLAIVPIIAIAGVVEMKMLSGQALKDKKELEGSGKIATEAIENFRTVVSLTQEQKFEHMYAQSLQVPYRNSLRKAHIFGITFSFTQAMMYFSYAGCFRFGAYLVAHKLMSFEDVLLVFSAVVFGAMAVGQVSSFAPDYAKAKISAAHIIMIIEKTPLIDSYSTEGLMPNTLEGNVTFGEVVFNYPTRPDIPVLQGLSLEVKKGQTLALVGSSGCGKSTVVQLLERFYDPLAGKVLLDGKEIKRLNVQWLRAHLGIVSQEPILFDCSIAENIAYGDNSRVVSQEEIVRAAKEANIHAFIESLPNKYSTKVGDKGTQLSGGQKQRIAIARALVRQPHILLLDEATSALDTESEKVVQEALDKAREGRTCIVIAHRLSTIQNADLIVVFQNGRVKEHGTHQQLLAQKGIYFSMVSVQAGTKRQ

| Activity [1] | Activity [2] | Structure (SMILES) |
| --- | --- | --- |
| substrate [+] | – | C[C@H]1O[C@@H](O[C@H]2[C@@H](O)C[C@H](O[C@H]3[C@@H](O)C[C@H](O[C@H]4CC[C@@]5(C)[C@H](CC[C@@H]6[C@@H]5C[C@@H](O)[C@]5(C)[C@@H](C7=CC(=O)OC7)CC[C@]65O)C4)O[C@@H]3C)O[C@@H]2C)C[C@H](O)[C@@H]1O [DIGOXIN] |
| – | inhibitor [+] | CC[C@]1(O)C[C@@H]2CN(CCc3c([nH]c4ccccc34)[C@@](C(=O)OC)(c3cc4c(cc3OC)N(C)[C@H]3[C@@](O)(C(=O)OC)[C@H](OC(C)=O)[C@]5(CC)C=CCN6CC[C@]43[C@@H]65)C2)C1 [VINBLASTINE] |
